Test results taken from patent US11434221B2, “Pyrazine-4-carbamate or -urea derivatives as herbicides” (Syngenta Participations AG, priority 2017, dated 2022).

Key:
Type in all cases: in vivo
Design in all cases: key: 5=total damage to plant; 0=no damage to plant
[1] = test system: Alopecurus myosuroides (ALOMY); assay: Pre-emergence herbicidal activity, glasshouse pot test; settings: Rate 1000 g/ha; sprayed one day after sowing; evaluated after 13 days
Procedure: (§1) Seeds of a variety of test species were sown in standard soil in pots: Triticum aestivium (TRZAW), Avena fatua (AVEFA), Alopecurus myosuroides (ALOMY), Echinochloa crus-galli (ECHCG), Lolium perenne (LOLPE), and Setaria faberi (SETFA). After cultivation for one day (pre-emergence) under controlled conditions in a glasshouse (at 24/16° C., day/night; 14 hours light; 65% humidity), the plants were sprayed with an aqueous spray solution derived from the formulation of the technical active ingredient in acetone/water (50:50) solution containing 0.5% Tween 20 (polyoxyethelyene sorbitan monolaurate, CAS RN 9005-64-5). The test plants were then grown in a glasshouse under controlled conditions (at 24/16° C., day/night; 14 hours light; 65% humidity) and watered twice daily. After 13 days, the test was evaluated (5=total damage to plant; 0=no damage to plant).

Avena fatua (AVEFA) [2] = assay: as above; settings: Rate 1000 g/ha; sprayed one day after sowing; evaluated after 13 days
Procedure: as §1

[3] = test system: Echinochloa crus-galli (ECHCG); assay: as above; settings: Rate 1000 g/ha; sprayed one day after sowing; evaluated after 13 days
Procedure: as §1

Lolium perenne (LOLPE) [4] = assay: as above; settings: Rate 1000 g/ha; sprayed one day after sowing; evaluated after 13 days
Procedure: as §1

Setaria faberi (SETFA) [5] = assay: as above; settings: Rate 1000 g/ha; sprayed one day after sowing; evaluated after 13 days
Procedure: as §1

[6] = test system: Triticum aestivium (TRZAW); assay: as above; settings: Rate 1000 g/ha; sprayed one day after sowing; evaluated after 13 days
Procedure: as §1

[7] = test system: Alopecurus myosuroides (ALOMY); assay: Post-emergence herbicidal activity, glasshouse pot test; settings: Rate 1000 g/ha; sprayed after 8 days cultivation; evaluated after 13 days
Procedure: (§2) Seeds of a variety of test species were sown in standard soil in pots: Triticum aestivium (TRZAW), Avena fatua (AVEFA), Alopecurus myosuroides (ALOMY), Echinochloa crus-galli (ECHCG), Lolium perenne (LOLPE), and Setaria faberi (SETFA). After 8 days cultivation (post-emergence) under controlled conditions in a glasshouse (at 24/16° C., day/night; 14 hours light; 65% humidity), the plants were sprayed with an aqueous spray solution derived from the formulation of the technical active ingredient in acetone/water (50:50) solution containing 0.5% Tween 20 (polyoxyethelyene sorbitan monolaurate, CAS RN 9005-64-5). The test plants were then grown in a glasshouse under controlled conditions (at 24/16° C., day/night; 14 hours light; 65% humidity) and watered twice daily. After 13 days, the test was evaluated (5=total damage to plant; 0=no damage to plant).

Avena fatua (AVEFA) [8] = assay: as above; settings: Rate 1000 g/ha; sprayed after 8 days cultivation; evaluated after 13 days
Procedure: as §2

[9] = test system: Echinochloa crus-galli (ECHCG); assay: as above; settings: Rate 1000 g/ha; sprayed after 8 days cultivation; evaluated after 13 days
Procedure: as §2

Lolium perenne (LOLPE) [10] = assay: as above; settings: Rate 1000 g/ha; sprayed after 8 days cultivation; evaluated after 13 days
Procedure: as §2

Setaria faberi (SETFA) [11] = assay: as above; settings: Rate 1000 g/ha; sprayed after 8 days cultivation; evaluated after 13 days
Procedure: as §2

[12] = test system: Triticum aestivium (TRZAW); assay: as above; settings: Rate 1000 g/ha; sprayed after 8 days cultivation; evaluated after 13 days
Procedure: as §2

Row | SMILES | Control of weed species after pre-emergence application, ALOMY (damage score 0-5) [1] | Control of weed species after pre-emergence application, AVEFA (damage score 0-5) (Avena fatua (AVEFA) [2]) | Control of weed species after pre-emergence application, ECHCG (damage score 0-5) [3] | Control of weed species after pre-emergence application, LOLPE (damage score 0-5) (Lolium perenne (LOLPE) [4]) | Control of weed species after pre-emergence application, SETFA (damage score 0-5) (Setaria faberi (SETFA) [5]) | Control of weed species after pre-emergence application, TRAZW (damage score 0-5) [6] | Control of weed species after post-emergence application, ALOMY (damage score 0-5) [7] | Control of weed species after post-emergence application, AVEFA (damage score 0-5) (Avena fatua (AVEFA) [8]) | Control of weed species after post-emergence application, ECHCG (damage score 0-5) [9] | Control of weed species after post-emergence application, LOLPE (damage score 0-5) (Lolium perenne (LOLPE) [10]) | Control of weed species after post-emergence application, SETFA (damage score 0-5) (Setaria faberi (SETFA) [11]) | Control of weed species after post-emergence application, TRAZW (damage score 0-5) [12]
1 | Cc1nc(-c2cncc(F)c2)cnc1N(C)C(=O)OC(C)(C)C [Compound H19, tert-butyl N-(3-methyl-5-(5-fluoropyridin-3-yl)-pyrazin-2-yl)-N-methyl-carbamate] | 0 | 2 | 4 | 1 | 5 | 0 | 0 | 3 | 4 | 2 | 5 | 0
2 | CC(C)(C)OC(=O)N(C(=O)OC(C)(C)C)c1ncc(-c2cncc(F)c2)nc1C1=CCCCC1 [Compound H15] | 0 | 0 | 0 | 0 | 0 | 0 | 0 | 1 | 0 | 0 | 2 | 0
3 | CC(C)(C)OC(=O)OCc1nc(-c2cncc(F)c2)cnc1N(C(=O)OC(C)(C)C)C(=O)OC(C)(C)C [Compound H18] | 0 | 0 | 3 | 1 | 4 | 0 | 0 | 1 | 4 | 1 | 3 | 0
4 | CC(C)c1nc(-c2cncc(F)c2)cnc1N(C(=O)OC(C)(C)C)C(=O)OC(C)(C)C [Compound H13] | 0 | 0 | 1 | 0 | 4 | 0 | 0 | 1 | 2 | 1 | 5 | 1
5 | C#Cc1nc(-c2cncc(F)c2)cnc1N(C(=O)OC(C)(C)C)C(=O)OC(C)(C)C [Compound H29] | 0 | 0 | 0 | 0 | 0 | 0 | 0 | 0 | 1 | 1 | 1 | 1
6 | Cc1nc(-c2cncc(F)c2)cnc1N(C(=O)OC(C)(C)C)C(=O)OC(C)(C)C [Compound H2, 2-bis(tert-butoxycarbonyl)amino-3-methyl-5-(5-fluoropyrid-3-yl)pyrazine] | 0 | 2 | 4 | 2 | 5 | 0 | 0 | 3 | 5 | 2 | 5 | 0
7 | CC(C)(C)OC(=O)N(C(=O)OC(C)(C)C)c1ncc(-c2cncc(F)c2)nc1OCc1ccccc1 [Compound H8] | 0 | 0 | 1 | 1 | 2 | 0 | 0 | 1 | 1 | 0 | 1 | 0
8 | CC(C)(C)OC(=O)N(C(=O)OC(C)(C)C)c1ncc(-c2cncc(F)c2)nc1Br [Compound H16] | 0 | 0 | 1 | 0 | 1 | 0 | 0 | 1 | 1 | 2 | 3 | 0
9 | Cc1nc(-c2cncnc2)cnc1NC(=O)OC(C)(C)C [Compound H23] | 0 | 1 | 2 | 0 | 4 | 0 | 1 | 3 | 4 | 2 | 5 | 1
